Read-outs that look alike come from different tables or passages of the source.
What was measured:
[1] = test system: Pseudomonas aeruginosa efflux+ (MB9798), IMP-1; format: cell-based; parameters: Concentration of metallo-β-lactamase inhibitor which restores susceptibility of efflux + (MB9798) strain to imipenem: unit not given here; conditions: C, D serine β-lactamase inhibitor closely related to relebactam; for P. aeruginosa expressing IMP-1, efflux + (MB9798) MITC95: concentration restoring susceptibility to imipenem at 2 μg/mL in the presence of a class A
Procedure, shortened: (§1)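 P. aeruginosa PAO1-derived IMP-1 strains, efflux+ MB9798 and efflux− MB9799, tested by standard microbroth MIC with imipenem and/or ceftazidime fixed, usually at CLSI breakpoint, plus fixed class A/C β-lactamase inhibitor against AmpC. Inhibitor titrated; concentration restoring susceptibility recorded; MB9798/MB9799 fold difference indicates efflux.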

[2] = test system: Pseudomonas aeruginosa MB9798 vs MB9799
Procedure, shortened: as §1

[3] = test system: Serratia marcescens expressing IMP-1 (CL5741); format: cell-based; conditions: for Serratia marcescens expressing IMP-1 (CL5741) MITC95: with imipenem 1 μg/ml, 95% inhibition of bacterial growth; for Serratia marcescens MITC95: IMP-1 strain CL5741, with imipenem 1 μg/ml, 95% inhibition of growth
Procedure, shortened: (§2)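 Colonies grown overnight on blood agar at 35° C were suspended in saline, diluted 1:100 into 1.1×CAMHB and dispensed. Imipenem was added to 1 μg/ml, then test compound. After 22 hours to 24 hours at 35° C, absorbance was recorded.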

[4] = test system: Klebsiella pneumoniae expressing VIM-1 (IHMA599644); format: cell-based; conditions: for Klebsiella pneumoniae expressing VIM-1 (IHMA599644) MITC95: with imipenem 1 μg/ml, 95% inhibition of bacterial growth; for Klebsiella pneumoniae MITC95: VIM-1 strain IHMA599644, with imipenem 1 μg/ml, 95% inhibition of growth
Procedure, shortened: as §2

[5] = test system: Escherichia coli expressing NDM-1 (CLB30005, CLB30016); format: cell-based; conditions: with imipenem 1 μg/ml; for Escherichia coli expressing NDM-1 (CLB30016) MITC95: 95% inhibition of bacterial growth; for Escherichia coli MITC95: NDM-1 strain, 95% inhibition of growth
Procedure, shortened: as §2

[6] = target: NDM-1 (Klebsiella pneumoniae, UniProt C7C422); assay: biochemical; format: biochemical; conditions: fluorescence assay, CCF2-FA substrate, 1 pM enzyme, 2 hours at 25° C.; read-out: NDM-1 IC50
Procedure, shortened: (§3)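 Class B activity is measured in the presence of compound by fluorescence with CCF2-FA after a 2-hour incubation at 25° C. IC50 is taken from a 4-parameter fit of semi-logarithmic dose-response data.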

[7] = target: IMP-1 (Serratia marcescens, UniProt P52699); assay: biochemical; format: biochemical; conditions: fluorescence assay, CCF2-FA substrate, 2 pM enzyme, 2 hours at 25° C.; read-out: IMP-1 IC50
Procedure, shortened: as §3

[8] = test system: Pseudomonas aeruginosa efflux− (MB9799), IMP-1; format: cell-based; conditions: C, D serine β-lactamase inhibitor closely related to relebactam; for P. aeruginosa expressing IMP-1, efflux − (MB9799) MITC95: concentration restoring susceptibility to imipenem at 2 μg/mL in the presence of a class A
Procedure, shortened: as §1

[9] = target: VIM-1 (Pseudomonas aeruginosa (strain ATCC 15692 / DSM 22644 / CIP 104116 / JCM 14847 / LMG 12228 / 1C / PRS 101 / PAO1), UniProt A0A0F7KYQ8); assay: biochemical; conditions: CCF2-FA substrate, 30 pM enzyme, 2 hours at 25° C.
Procedure, shortened: as §3

[10] = ratio MITC95 PA_9798/MITC95 PA_9799
[11] = fluorescence assay, read-out: VIM-1 IC50

IMP-1, sequence (P52699 whole entry, looked up, species assumed): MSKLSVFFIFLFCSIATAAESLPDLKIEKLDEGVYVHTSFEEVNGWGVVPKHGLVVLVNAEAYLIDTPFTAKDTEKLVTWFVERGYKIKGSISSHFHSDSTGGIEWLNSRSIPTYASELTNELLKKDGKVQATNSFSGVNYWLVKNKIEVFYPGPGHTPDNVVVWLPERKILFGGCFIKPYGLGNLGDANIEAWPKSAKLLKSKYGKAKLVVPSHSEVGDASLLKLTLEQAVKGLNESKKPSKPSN
NDM-1, sequence (C7C422 whole entry, looked up, species assumed): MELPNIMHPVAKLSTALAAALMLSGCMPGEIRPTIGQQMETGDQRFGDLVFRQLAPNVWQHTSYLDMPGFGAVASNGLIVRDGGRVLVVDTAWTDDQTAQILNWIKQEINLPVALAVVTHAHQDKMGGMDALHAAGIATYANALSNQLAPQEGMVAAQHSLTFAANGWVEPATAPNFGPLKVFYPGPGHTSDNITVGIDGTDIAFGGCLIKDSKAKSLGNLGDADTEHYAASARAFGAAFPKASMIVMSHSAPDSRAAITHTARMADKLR

SMILES: Nc1nc2c(-c3ccc(S(=O)(=O)N[C@@H]4CCNC4)c(S(N)(=O)=O)c3-c3nnn[nH]3)cccc2s1 [Example 63, 4-(2-amino-1,3-benzothiazol-4-yl)-N1-[(3R)-pyrrolidin-3-yl]-3-(1H-tetrazol-5-yl)benzene-1,2-disulfonamide]
- P. aeruginosa expressing IMP-1, efflux + (MB9798) MITC95 [1]: 0.7813 µM
- Efflux ratio [2, 10]: 0.50
- Serratia marcescens expressing IMP-1 (CL5741) MITC95 [3]: 1.563 µM
- Klebsiella pneumoniae expressing VIM-1 (IHMA599644) MITC95 [4]: 1.563 µM
- Escherichia coli expressing NDM-1 (CLB30016) MITC95 [5]: 1.563 µM
- IC50 [6]: 44.5 pM
- IC50 [7]: 307 pM
- P. aeruginosa expressing IMP-1, efflux − (MB9799) MITC95 [8]: 1.563 µM
- IC50 [9, 11]: 257 pM

SMILES: NS(=O)(=O)c1c(S(=O)(=O)N[C@@H]2CCNC2)ccc(-c2cccc3[nH]nnc23)c1-c1nn[nH]n1 [Example 235, (R)-4-(1H-benzo[d][1,2,3]triazol-4-yl)-N^1-(pyrrolidin-3-yl)-3-(2H-tetrazol-5-yl)benzene-1,2-disulfonamide]
- P. aeruginosa expressing IMP-1, efflux + (MB9798) MITC95 [1]: 0.7813 µM
- Efflux ratio [2, 10]: 0.50
- Serratia marcescens expressing IMP-1 (CL5741) MITC95 [3]: 0.7813 µM
- Klebsiella pneumoniae expressing VIM-1 (IHMA599644) MITC95 [4]: 3.125 µM
- Escherichia coli expressing NDM-1 (CLB30016) MITC95 [5]: 1.563 µM
- IC50 [6]: 30.8 pM
- IC50 [7]: 440 pM
- P. aeruginosa expressing IMP-1, efflux − (MB9799) MITC95 [8]: 1.563 µM
- IC50 ([9]; VIM-1 IC50, fluorescence assay): 105 pM

SMILES: NCCNS(=O)(=O)c1ccc(-c2cccn3ccnc23)c(-c2nn[nH]n2)c1S(N)(=O)=O [Example 361, N1-(2-aminoethyl)-4-(imidazo[1,2-a]pyridin-8-yl)-3-(2H-tetrazol-5-yl)benzene-1,2-disulfonamide]
- P. aeruginosa expressing IMP-1, efflux + (MB9798) MITC95 [1]: 0.7813 µM
- Efflux ratio [2, 10]: 1.00
- Serratia marcescens MITC95 [3]: 0.7813 µM
- Klebsiella pneumoniae MITC95 [4]: 1.563 µM
- Escherichia coli MITC95 [5]: 0.3906 µM
- IC50 [6]: 143 pM
- IC50 [7]: 147 pM
- P. aeruginosa expressing IMP-1, efflux − (MB9799) MITC95 [8]: 0.7813 µM
- IC50 ([9]; VIM-1 IC50, fluorescence assay): 95.3 pM

SMILES: Nc1nc2c(-c3ccc(S(=O)(=O)N4CCC[C@H](N)C4)c(S(N)(=O)=O)c3-c3nnn[nH]3)cccc2s1 [Example 66, 3-(2-amino-1,3-benzothiazol-4-yl)-6-{[(3S)-3-aminopiperidin-1-yl]sulfonyl}-2-(1H-tetrazol-5-yl)benzenesulfonamide]
- P. aeruginosa expressing IMP-1, efflux + (MB9798) MITC95 [1]: 3.125 µM
- Efflux ratio [2, 10]: 2.00
- Serratia marcescens expressing IMP-1 (CL5741) MITC95 [3]: 3.125 µM
- Klebsiella pneumoniae expressing VIM-1 (IHMA599644) MITC95 [4]: 6.25 µM
- Escherichia coli expressing NDM-1 (CLB30016) MITC95 [5]: 3.125 µM
- IC50 [6]: 1090 pM
- IC50 [7]: 2260 pM
- P. aeruginosa expressing IMP-1, efflux − (MB9799) MITC95 [8]: 1.563 µM
- IC50 [9, 11]: 4010 pM

SMILES: NCC(CN)NS(=O)(=O)c1ccc(-c2cccc(-c3c[nH]c(N)n3)c2)c(-c2nn[nH]n2)c1S(N)(=O)=O [Example 435]
- Concentration of metallo-β-lactamase inhibitor which restores susceptibility of efflux + (MB9798) strain to imipenem ([1]; efflux+ MB9798, imipenem at 2 μg/mL, in the presence of a class A): 3.125
- Efflux ratio ([2]; fold difference between efflux+ (MB9798) and efflux− (MB9799) strains, imipenem at 2 μg/mL): 2.00
- Serratia marcescens MITC95 [3]: 3.125 µM
- Klebsiella pneumoniae MITC95 [4]: 3.125 µM
- Escherichia coli MITC95 [5]: 1.563 µM
- IC50 [6]: 460 pM
- IC50 [7]: 1780 pM
- Concentration of metallo-β-lactamase inhibitor which restores susceptibility of efflux − (MB9799) strain to imipenem ([8]; efflux− MB9799, imipenem at 2 μg/mL, in the presence of a class A): 1.563
- IC50 [9, 11]: 1210 pM

SMILES: CN(C)CC(F)(F)CNS(=O)(=O)c1ccc(-c2cccc3sc(N)nc23)c(-c2nnn[nH]2)c1S(N)(=O)=O [Example 16, 4-(2-amino-1,3-benzothiazol-4-yl)-N1-[3-(dimethylamino)-2,2-difluoropropyl]-3-(1H-tetrazol-5-yl)benzene-1,2-disulfonamide]
- P. aeruginosa expressing IMP-1, efflux + (MB9798) MITC95 [1]: 100 µM
- Efflux ratio [2, 10]: 16.00
- Serratia marcescens expressing IMP-1 (CL5741) MITC95 [3]: 12.5 µM
- Klebsiella pneumoniae expressing VIM-1 (IHMA599644) MITC95 [4]: 25 µM
- Escherichia coli expressing NDM-1 (CLB30016) MITC95 [5]: 25 µM
- IC50 [6]: 92.1 pM
- IC50 [7]: 442 pM
- P. aeruginosa expressing IMP-1, efflux − (MB9799) MITC95 [8]: 6.25 µM
- IC50 [9, 11]: 461 pM

SMILES: NC(=O)c1nc2c(-c3ccc(S(=O)(=O)N[C@H]4CCNC4)c(S(N)(=O)=O)c3-c3nn[nH]n3)cccc2[nH]1 [Example 292, (S)-4-(4-(N-(pyrrolidin-3-yl)sulfamoyl)-3-sulfamoyl-2-(2H-tetrazol-5-yl)phenyl)-1H-benzo[d]imidazole-2-carboxamide]
- P. aeruginosa expressing IMP-1, efflux + (MB9798) MITC95 [1]: 0.7813 µM
- Efflux ratio [2, 10]: 0.50
- Serratia marcescens MITC95 [3]: 3.125 µM
- Klebsiella pneumoniae MITC95 [4]: 3.125 µM
- Escherichia coli MITC95 [5]: 1.563 µM
- IC50 [6]: 45.3 pM
- IC50 [7]: 672 pM
- P. aeruginosa expressing IMP-1, efflux − (MB9799) MITC95 [8]: 1.563 µM
- IC50 [9, 11]: 146 pM

SMILES: Nc1ncccc1-c1ccc(S(=O)(=O)NC[C@H]2CNCCN2)c(S(N)(=O)=O)c1-c1nn[nH]n1 [Example 316, (R)-4-(2-aminopyridin-3-yl)-N1-(piperazin-2-ylmethyl)-3-(1H-tetrazol-5-yl)benzene-1,2-disulfonamide]
- P. aeruginosa expressing IMP-1, efflux + (MB9798) MITC95 [1]: 3.125 µM
- Efflux ratio [2, 10]: 2.00
- Serratia marcescens MITC95 [3]: 0.7813 µM
- Klebsiella pneumoniae MITC95 [4]: 6.25 µM
- Escherichia coli MITC95 [5]: 0.3906 µM
- IC50 [6]: 175 pM
- IC50 [7]: 2330 pM
- P. aeruginosa expressing IMP-1, efflux − (MB9799) MITC95 [8]: 1.563 µM
- IC50 ([9]; VIM-1 IC50, fluorescence assay): 212 pM

SMILES: NCC1CN(S(=O)(=O)c2ccc(-c3cccc4sc(N)nc34)c(-c3nnn[nH]3)c2S(N)(=O)=O)CCO1.O=C(O)C(F)(F)F (stereo not drawn) [Example 104, (4-((4-(2-aminobenzo[d]thiazol-4-yl)-2-sulfamoyl-3-(1H-tetrazol-5-yl)phenyl)sulfonyl)morpholin-2-yl)methanaminium 2,2,2-trifluoroacetate]
- P. aeruginosa expressing IMP-1, efflux + (MB9798) MITC95 [1]: 3.125 µM
- Efflux ratio [2, 10]: 2.00
- Serratia marcescens expressing IMP-1 (CL5741) MITC95 [3]: 3.125 µM
- Klebsiella pneumoniae expressing VIM-1 (IHMA599644) MITC95 [4]: 6.25 µM
- Escherichia coli expressing NDM-1 (CLB30016) MITC95 [5]: 1.563 µM
- IC50 [6]: 228 pM
- IC50 [7]: 1240 pM
- P. aeruginosa expressing IMP-1, efflux − (MB9799) MITC95 [8]: 1.563 µM
- IC50 [9, 11]: 1590 pM

SMILES: NCCNS(=O)(=O)c1ccc(-c2cccc(C(=O)NC[C@H](N)CO)c2N)c(-c2nn[nH]n2)c1S(N)(=O)=O [Example 333, (S)-2-amino-N-(2-amino-3-hydroxypropyl)-4′-(N-(2-aminoethyl)sulfamoyl)-3′-sulfamoyl-2′-(2H-tetrazol-5-yl)-[1,1′-biphenyl]-3-carboxamide]
- P. aeruginosa expressing IMP-1, efflux + (MB9798) MITC95 [1]: 1.563 µM
- Efflux ratio [2, 10]: 1.00
- Serratia marcescens MITC95 [3]: 1.563 µM
- Klebsiella pneumoniae MITC95 [4]: 3.125 µM
- Escherichia coli MITC95 [5]: 1.563 µM
- IC50 [6]: 1010 pM
- IC50 [7]: 3210 pM
- P. aeruginosa expressing IMP-1, efflux − (MB9799) MITC95 [8]: 1.563 µM
- IC50 [9, 11]: 472 pM

From patent US10221163B2 (priority 2015, dated 2019)
